Experiments:
Test in all cases: relative viability (nuclei count vs DMSO), 5 days (fraction); higher = more cells survive
[1] = compound: C1=CC=C2C(=C1)N=C(S2)C(C#N)C3=NC(=NC=C3)NCCC4=CN=CC=C4 + Cc1nc(NC(=O)N2CCC[C@H]2C(N)=O)sc1-c1ccnc(C(C)(C)C(F)(F)F)c1 [Alpelisib] (partner 2 µM)
Procedure, shortened: (§1)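 Relative viability was taken as the ratio of nuclei in treated wells to nuclei in vehicle wells. Lung cancer cell lines in 1536-well plates received compounds by pin tool one day after seeding, either one drug alone or a fixed anchor-drug dose plus five library-drug doses (not always all listed) in √10 steps. Nuclei were counted on 4× images after 5 days of treatment, and values are medians of duplicate plates.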

Vandetanib + Bortezomib = compound: COc1cc2/c(=N/c3ccc(Br)cc3F)nc[nH]c2cc1OCC1CCN(C)CC1 [Vandetanib] + CC(C)C[C@H](NC(=O)[C@H](Cc1ccccc1)NC(=O)c1cnccn1)B(O)O [Bortezomib] (partner 0.002 µM)
Procedure, shortened: as §1

[2] = compound: C1=CC=C2C(=C1)N=C(S2)C(C#N)C3=NC(=NC=C3)NCCC4=CN=CC=C4 + Nc1ncn([C@H]2C[C@H](O)[C@@H](CO)O2)c(=O)n1 [Decitabine] (partner 2 µM)
Procedure, shortened: as §1

Vandetanib + Navitoclax = compound: COc1cc2/c(=N/c3ccc(Br)cc3F)nc[nH]c2cc1OCC1CCN(C)CC1 [Vandetanib] + CC1(C)CCC(c2ccc(Cl)cc2)=C(CN2CCN(c3ccc(C(=O)NS(=O)(=O)c4ccc(N[C@H](CCN5CCOCC5)CSc5ccccc5)c(S(=O)(=O)C(F)(F)F)c4)cc3)CC2)C1 [Navitoclax] (partner 0.5 µM)
Procedure, shortened: as §1

With UMC-11 as the cell line, how does the relative viability ([1]; first compound 0.005 µM) read?
The relative viability was 0.644.

And the relative viability ([1]; first compound 0.01581 µM)?
The relative viability was 1.12.

And the relative viability ([1]; first compound 0.05 µM)?
Its relative viability is 0.924.

And the relative viability ([1]; first compound 0.1581 µM)?
The relative viability was 1.11.

What about the relative viability ([1]; first compound 0.5 µM) of the same cell line?
Its relative viability is 0.78.

And the relative viability (Vandetanib + Bortezomib; first compound 0.02 µM)?
The relative viability was 0.743.

What about the relative viability (Vandetanib + Bortezomib; first compound 0.06325 µM) of the same cell line?
Its relative viability is 0.708.

And the relative viability (Vandetanib + Bortezomib; first compound 0.2 µM)?
The relative viability was 0.61.

And the relative viability (Vandetanib + Bortezomib; first compound 0.6325 µM)?
Its relative viability is 0.725.

What about the relative viability (Vandetanib + Bortezomib; first compound 2 µM) of the same cell line?
The relative viability was 0.746.

What about the relative viability ([2]; first compound 0.005 µM) of the same cell line?
The relative viability was 0.546.

What about the relative viability ([2]; first compound 0.01581 µM) of the same cell line?
Its relative viability is 0.65.

And the relative viability ([2]; first compound 0.05 µM)?
Its relative viability is 0.456.

And the relative viability ([2]; first compound 0.1581 µM)?
Its relative viability is 0.589.

What about the relative viability ([2]; first compound 0.5 µM) of the same cell line?
Its relative viability is 0.59.

What about the relative viability (Vandetanib + Navitoclax; first compound 0.02 µM) of the same cell line?
The relative viability was 0.312.

What about the relative viability (Vandetanib + Navitoclax; first compound 0.06325 µM) of the same cell line?
Its relative viability is 0.311.

And the relative viability (Vandetanib + Navitoclax; first compound 0.2 µM)?
The relative viability was 0.286.

What about the relative viability (Vandetanib + Navitoclax; first compound 0.6325 µM) of the same cell line?
Its relative viability is 0.308.

What about the relative viability (Vandetanib + Navitoclax; first compound 2 µM) of the same cell line?
The relative viability was 0.309.

From the supplement of paper PMC10307832
